Where a name gives a salt, the structure may show the parent alone.
Target: T1, recombinant guanylate cyclase reporter cell line (Rattus norvegicus, UniProt P19686+P20595)
T1 construct: expressed in transfected cells
T1 sequence (P20595 1-619): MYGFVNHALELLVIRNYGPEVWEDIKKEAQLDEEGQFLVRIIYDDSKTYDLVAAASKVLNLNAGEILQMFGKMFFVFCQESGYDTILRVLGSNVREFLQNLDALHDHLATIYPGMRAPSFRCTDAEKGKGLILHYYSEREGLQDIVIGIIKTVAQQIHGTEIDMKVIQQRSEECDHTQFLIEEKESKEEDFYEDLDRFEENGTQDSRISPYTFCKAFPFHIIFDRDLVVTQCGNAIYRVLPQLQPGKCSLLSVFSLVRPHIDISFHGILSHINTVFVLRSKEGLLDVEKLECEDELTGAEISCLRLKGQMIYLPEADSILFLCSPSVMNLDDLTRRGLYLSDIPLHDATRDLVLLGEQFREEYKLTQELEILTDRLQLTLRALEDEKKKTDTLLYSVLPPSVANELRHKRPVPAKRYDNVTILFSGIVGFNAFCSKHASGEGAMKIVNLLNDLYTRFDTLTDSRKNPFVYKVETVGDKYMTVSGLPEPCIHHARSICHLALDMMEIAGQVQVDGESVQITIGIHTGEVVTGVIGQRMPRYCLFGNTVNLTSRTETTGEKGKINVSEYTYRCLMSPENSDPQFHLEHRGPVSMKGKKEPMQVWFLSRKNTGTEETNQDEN
T1 sequence (P19686 1-690): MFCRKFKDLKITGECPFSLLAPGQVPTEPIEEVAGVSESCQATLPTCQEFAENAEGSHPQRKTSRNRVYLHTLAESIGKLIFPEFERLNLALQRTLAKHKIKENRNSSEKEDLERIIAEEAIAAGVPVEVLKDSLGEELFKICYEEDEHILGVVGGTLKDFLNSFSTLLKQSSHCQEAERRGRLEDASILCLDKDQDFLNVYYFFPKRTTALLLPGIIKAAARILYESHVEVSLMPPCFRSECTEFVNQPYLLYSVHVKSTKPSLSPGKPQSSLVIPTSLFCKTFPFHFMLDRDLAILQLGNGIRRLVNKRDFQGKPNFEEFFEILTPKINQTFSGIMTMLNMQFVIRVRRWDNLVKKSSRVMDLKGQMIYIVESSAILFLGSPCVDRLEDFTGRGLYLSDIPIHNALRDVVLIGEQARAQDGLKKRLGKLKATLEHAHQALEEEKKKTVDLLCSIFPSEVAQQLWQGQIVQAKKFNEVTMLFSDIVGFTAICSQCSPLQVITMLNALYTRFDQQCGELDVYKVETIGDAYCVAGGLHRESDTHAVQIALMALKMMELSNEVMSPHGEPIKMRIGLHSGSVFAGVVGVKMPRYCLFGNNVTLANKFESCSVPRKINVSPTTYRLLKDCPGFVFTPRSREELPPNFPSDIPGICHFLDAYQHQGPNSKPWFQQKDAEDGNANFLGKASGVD
Assay: B-2. Action on recombinant guanylate cyclase reporter cell line
Format: cell-based
Settings: MEC = minimal effective concentration; in some cases mean values from individual determinations
Method in brief: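 Read-out: MEC (minimal effective concentration) in cells. Reporter line carries recombinant sGC. Some values are averages of single runs.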

CCOC(=O)c1cccc(C(CN)NC(=O)c2c(C)nc3c(OCc4c(F)cccc4F)cc(C)cn23)n1 (racemic) [Example 397, rac-ethyl 6-{2-amino-1-[({8-[(2,6-difluorobenzyl)oxy]-2,6-dimethylimidazo[1,2-a]pyridin-3-yl}carbonyl)amino]ethyl}pyridine-2-carboxylate]
MEC: 1.00 µM

Cc1cc(OCc2c(F)cccc2F)c2nc(C)c(C(=O)NC(CN)c3ccc(C#N)cc3)n2c1 (racemic) [Example 398, rac-N-[2-amino-1-(4-cyanophenyl)ethyl]-8-[(2,6-difluorobenzyl)oxy]-2,6-dimethylimidazo[1,2-a]pyridine-3-carboxamide]
MEC: 0.30 µM

COC(=O)c1cccc(C(N)CNC(=O)c2c(C)nc3c(OCc4c(F)cccc4F)cc(C)cn23)c1 (racemic) [Example 399, rac-Methyl 3-{1-amino-2-[({8-[(2,6-difluorobenzyl)oxy]-2,6-dimethylimidazo[1,2-a]pyridin-3-yl}carbonyl)amino]ethyl}benzoate]
MEC: 1.00 µM

Cc1cc(OCc2c(F)cccc2F)c2nc(C)c(C(=O)NCC(N)C#N)n2c1 (racemic) [Example 400, rac-N-(2-amino-2-cyanoethyl)-8-[(2,6-difluorobenzyl)oxy]-2,6-dimethylimidazo[1,2-a]pyridine-3-carboxamide]
MEC: 0.65 µM

CC=CCC(N)CNC(=O)c1c(C)nc2c(OCc3c(F)cccc3F)cc(C)cn12 (racemic) [Example 406, rac-N-[(4E/Z)-2-aminohex-4-en-1-yl]-8-[(2,6-difluorobenzyl)oxy]-2,6-dimethylimidazo[1,2-a]pyridine-3-carboxamide]
MEC: 0.10 µM

CSCCC(N)CNC(=O)c1c(C)nc2c(OCc3c(F)cccc3F)cc(C)cn12 (racemic) [Example 412, rac-N-[2-amino-4-(methylsulfanyl)butyl]-8-[(2,6-difluorobenzyl)oxy]-2,6-dimethylimidazo[1,2-a]pyridine-3-carboxamide]
MEC: 0.10 µM

Cc1cc(OCc2c(F)cccc2F)c2nc(C)c(C(=O)NCC(N)CCS(C)(=O)=O)n2c1 (racemic) [Example 413, rac-N-[2-amino-4-(methylsulfonyl)butyl]-8-[(2,6-difluorobenzyl)oxy]-2,6-dimethylimidazo[1,2-a]pyridine-3-carboxamide]
MEC: 5.5 µM

Cc1cc(OCc2c(F)cccc2F)c2nc(C)c(C(=O)NCC3CS(=O)(=O)CCN3)n2c1 (racemic) [Example 414, rac-8-[(2,6-difluorobenzyl)oxy]-N-[(1,1-dioxidothiomorpholin-3-yl)methyl]-2,6-dimethylimidazo[1,2-a]pyridine-3-carboxamide]
MEC: 0.30 µM

Cc1cc(OCc2c(F)cccc2F)c2nc(C)c(C(=O)NCC(N)c3csc(C)n3)n2c1 (racemic) [Example 415, rac-N-[2-amino-2-(2-methyl-1,3-thiazol-4-yl)ethyl]-8-[(2,6-difluorobenzyl)oxy]-2,6-dimethylimidazo[1,2-a]pyridine-3-carboxamide Triformate]
MEC: 5.5 µM

Cc1cc(OCc2c(F)cccc2F)c2nc(C)c(C(=O)NC(C#N)CN)n2c1 (racemic) [Example 416, rac-N-(2-amino-1-cyanoethyl)-8-[(2,6-difluorobenzyl)oxy]-2,6-dimethylimidazo[1,2-a]pyridine-3-carboxamide]
MEC: 1.00 µM

CCOCC(CN)NC(=O)c1c(C)nc2c(OCc3c(F)cccc3F)cccn12 (single isomer, unassigned) [Example 56, ent-N-(1-amino-3-ethoxypropan-2-yl)-8-[(2,6-difluorobenzyl)oxy]-2-methylimidazo[1,2-a]-pyridine-3-carboxamide]
MEC: 1.00 µM

CCOCC(CN)NC(=O)c1c(C)nc2c(OCc3c(F)cccc3F)cc(Cl)cn12 (single isomer, unassigned) [Example 57, ent-N-(1-amino-3-ethoxypropan-2-yl)-6-chloro-8-[(2,6-difluorobenzyl)oxy]-2-methylimidazo[1,2-a]-pyridine-3-carboxamide]
MEC: 0.30 µM

Cc1nc2c(OCc3c(F)cccc3F)cccn2c1C(=O)NC(CN)COC(C)C (single isomer, unassigned) [Example 93, ent-N-(1-Amino-3-isopropoxypropan-2-yl)-8-[(2,6-difluorobenzyl)oxy]-2-methylimidazo[1,2-a]-pyridine-3-carboxamide]
MEC: 0.30 µM

Cc1nc2c(OCc3c(F)cccc3F)cccn2c1C(=O)NCC(C)CN (single isomer, unassigned) [Example 95, ent-N-(3-Amino-2-methylpropyl)-8-[(2,6-difluorobenzyl)oxy]-2-methylimidazo[1,2-a]pyridine-3-carboxamide Dihydrochloride]
MEC: 1.00 µM

Cc1nc2c(OCc3c(F)cccc3F)cccn2c1C(=O)NCC(C)CN (single isomer, unassigned) [Example 96, ent-N-(3-Amino-2-methylpropyl)-8-[(2,6-difluorobenzyl)oxy]-2-methylimidazo[1,2-a]pyridine-3-carboxamide Dihydrochloride]
MEC: 1.00 µM

COCC(CN)NC(=O)c1c(C)nc2c(OCc3c(F)cccc3F)cccn12 (single isomer, unassigned) [Example 122, ent-N-(1-Amino-3-methoxypropan-2-yl)-8-[(2,6-difluorobenzyl)oxy]-2-methylimidazo[1,2-a]-pyridine-3-carboxamide Ditrifluoroacetate]
MEC: 1.00 µM

COCC(CN)NC(=O)c1c(C)nc2c(OCc3c(F)cccc3F)cccn12 (single isomer, unassigned) [Example 123, ent-N-(1-Amino-3-methoxypropan-2-yl)-8-[(2,6-difluorobenzyl)oxy]-2-methylimidazo[1,2-a]-pyridine-3-carboxamide Ditrifluoroacetate]
MEC: 3.00 µM

Cc1nc2c(OCc3c(F)cccc3F)cccn2c1C(=O)NCC(N)CC(F)(F)F (single isomer, unassigned) [Example 126, ent-N-(2-Amino-4,4,4-trifluorobutyl)-8-[(2,6-difluorobenzyl)oxy]-2-methylimidazo[1,2-a]pyridine-3-carboxamide]
MEC: 0.30 µM

Cc1nc2c(OCc3c(F)cccc3F)cccn2c1C(=O)NCC(N)CC(F)(F)F (single isomer, unassigned) [Example 127, ent-N-(2-Amino-4,4,4-trifluorobutyl)-8-[(2,6-difluorobenzyl)oxy]-2-methylimidazo[1,2-a]pyridine-3-carboxamide]
MEC: 1.00 µM

Cc1cc(OCc2c(F)cccc2F)c2nc(C)c(C(=O)NCC(N)CC(F)(F)F)n2c1 (single isomer, unassigned) [Example 128, ent-N-(2-Amino-4,4,4-trifluorobutyl)-8-[(2,6-difluorobenzyl)oxy]-2,6-dimethylimidazo[1,2-a]-pyridine-3-carboxamide]
MEC: 0.10 µM

Cc1cc(OCc2c(F)cccc2F)c2nc(C)c(C(=O)NCC(N)CC(F)(F)F)n2c1 (single isomer, unassigned) [Example 129, ent-N-(2-Amino-4,4,4-trifluorobutyl)-8-[(2,6-difluorobenzyl)oxy]-2,6-dimethylimidazo[1,2-a]-pyridine-3-carboxamide]
MEC: 0.10 µM

Cc1nc2c(OCc3c(F)cccc3F)cccn2c1C(=O)NC(C)[C@H](C)N (single isomer, unassigned) [Example 174]
MEC: 0.30 µM

Cc1nc2c(OCc3c(F)cccc3F)cccn2c1C(=O)NC(C)[C@H](C)N (single isomer, unassigned) [Example 175]
MEC: 1.00 µM

Cc1nc2c(OCc3c(F)cccc3F)cccn2c1C(=O)NC(C)[C@@H](C)N (single isomer, unassigned) [Example 176]
MEC: 1.00 µM

Cc1nc2c(OCc3c(F)cccc3F)cccn2c1C(=O)NC(C)[C@@H](C)N (single isomer, unassigned) [Example 177]
MEC: 1.00 µM

Cc1nc2c(OCC3CCCCC3)cccn2c1C(=O)NC(CN)c1ccc(F)c(F)c1 (single isomer, unassigned) [Example 178, ent-N-[2-Amino-1-(3,4-difluorophenyl)ethyl]-8-(cyclohexylmethoxy)-2-methylimidazo[1,2-a]-pyridine-3-carboxamide]
MEC: 0.30 µM

From patent US9624214B2, “Amino-substituted imidazo[1,2-a]pyridinecarboxamides and their use” (BAYER PHARMA AKTIENGESELLSCHAFT, priority 2012, dated 2017)
